In data set [1] the test system is Mouse. Nature of the data set: Symtomatology Tests in the Mouse. The format is in vivo. Particulars: for stimulant effects: low doses (10-50 mg/kg). An excerpt:
Symtomatology Tests in the Mouse

Data set [2] relates to rat serum lipids and glucose. Nature of the data set: Effect of pre-treatment on rat serum lipids and glucose induced by olive oil gavage. Type of data set: in vivo, rat (male Sprague Dawley). Particulars: for Serum Free Fatty Acids: 20 mg/kg i.p. 2 hours before olive oil (20 ml/kg gavage); for Serum Free Fatty Acids / Serum Concentration, Cholesterol / Serum Concentration, Glucose / Serum Concentration, Glycerol / Serum Concentration, Triglycerides: blood 3 hours after oil; for Serum Concentration, Cholesterol / Serum Concentration, Glucose / Serum Concentration, Glycerol / Serum Concentration, Triglycerides: 20 mg/kg i.p. 2 hours before olive oil; for inhibiting the increase in serum triglycerides induced by olive oil gavage: % of the oil treated group; for reduction of olive oil induced increase in serum cholesterol: HCl salts; for inhibiting the increase in serum triglycerides, compared with fenfluramine: olive oil gavage. An excerpt:
The effect of pre-treatment with fenfluramine and the HCl salts of the compounds of formula B in which R is Cl or CF3 on rat serum lipids and glucose induced by olive oil gavage.
The present study was designed to compare the effects of fenfluramine, and the HCl salts of the compounds of formula B in which R=Cl and CF3 on serum glucose and lipid parameters in male rats after an olive oil meal.
Twenty-four male Sprague Dawley rats (200-250 g.) were divided into 8 groups as follows:
The animals were not fasted. Where indicated, the rats were pre-treated (intraperitoneally) with the appropriate drug for 2 hours prior to the administration of olive oil. Three hours after olive oil treatment, the animals were anesthetized with ether and blood samples obtained by cardiac puncture of the exposed heart. In each case, total treatment time was 5 hours.

Data set [3] is described as follows: Comparison with fenfluramine: stimulating properties. Type of data set: in vivo. Particulars: HCl salts, in words.
The test system of data set [4] is Rats. Nature of the data set: Reduction of food consumption in rats (average daily consumption of food, ED50). The format is in vivo, rat. The conditions noted are these: for % Change From Control Value in Average Daily Consumption of Food: one hour prior to feeding; for potency compared with fenfluramine: HCl salts, summary in words; for ED50: Rattus norvegicus, po, read-out: Calculated ED50 (dose necessary to reduce the intake of food by 50%); for Relative Potency: Summary of Table II, fenfluramine = 1. Here is the method: Table II records the percent change in average daily consumption of food at various dosage levels upon administration of fenfluramine or the HCl salt of the compounds of formula B in which R is Cl or CF3 as well as the dose in milligrams per killograms necessary to reduce the intake of food by 50% (ED 50). […] In this study, drugs were administered one hour prior to feeding on the fifth day of regular food intake at doses of 5, 10 and 20 milligrams per killogram, with five rats being dosed at each level and fifteen rats serving as controls.
*ED50 : dose (mg/kg) necessary to reduce the intake of food by 50%.

The nature of data set [5]: Acute Toxicity in Rats. Type of data set: in vivo, rat. The conditions noted are these: rat, in vivo, po; P.O., rats; range in parentheses; read-out: Calculated LD50.
In data set [6] the test system is Rats. Nature of the data set: Acute Toxicity in Rats. The format is in vivo, rat. The conditions noted are these: for Mortality Ratio / toxicity relative to fenfluramine: rats; for toxicity compared with fenfluramine / toxicity relative to fenfluramine: HCl salts; for toxicity compared with fenfluramine: summary in words; for toxicity relative to fenfluramine: acute.

The test system of data set [7] is Rats. Nature of the data set: Sidman Avoidance Test in the Rat. Type of data set: in vivo, rat (male, Long Evans black-hooded). The conditions noted are these: for effect on performance / behavior: 8 mg/kg; for effect on performance / behavior / effect on performance in Sidman Avoidance test / effect on response rate / effect on shock rate: in words; for effect on performance in Sidman Avoidance test / effect on response rate / effect on shock rate: overall. Here is the method: The compound fenfluramine and the HCl salt compound of formula B in which R is Cl were examined in the Sidman Avoidance test.
Fenfluramine was run as a standard compound for comparative purposes in the study of appetite-suppressing drugs. The effects of drug-induced behavior are evaluated using the technique of Sidman Avoidance (Sidman, M., J. Comp. Physiol. Psychol. 46:253-261, 1953).
Male, Long Evans black-hooded rats (Simonsen Labs) weighing approximately 500 grams are run individually in Lehigh Valley Electronics rodent test chambers. Sessions (day/night) are 7.5 hours and 14 hours in length, respectively. The paradigm consists of two distinct temporal intervals for neither of which is the rat given any exteroceptive cues. The amount of time that elapses between shocks designates the shock-shock interval, is of a predetermined fixed length (10 seconds), and programmed by a recycling timer. When the rat responds by pressing a lever, the shock-shock interval is terminated and the response-shock interval is started. This interval is also of a predetermined fixed length (30 seconds) and programmed by a recycling timer. Both timers never operate simultaneously. The response-shock interval begins anew each time the rat responds on the lever. If the interval should elapse without the rat responding, a Shock (0.5 seconds, 10 mA) is given via the grid floor and the response-shock interval ends and the shock-shock interval begins.
Drug effects are evaluated as a precentage deviation of the rat's behavior from his baseline rate (responses/minute and shocks/minute). These effects are analyzed in 15 minute segments and an overall percentage deviation (response index and shock index) is determined.
based on an 8 mg/kg oral dose.

Data set [8] is described as follows: Solubility of the salt in water. Particulars: HCl salt.
Data set [9] deals with diabetics. Particulars: cited from earlier work.
In data set [10] the test system is plasma free fatty acids and triglycerides. Particulars: cited from earlier work.
Where [11] appears, read: 8 mg/kg oral, 7.5 hours session, 4 rats.

SMILES strings stand for the structures. “Also recorded” adds a separate entry of the source. Structures can show the parent of a compound that is named as a salt.

Regarding `CN[C@@H](C)Cc1ccccc1` [Methamphetamine, methamphetamine], the stimulant effects result in [1] is “stimulant effects”.

In the case of `C=COCCNC(C)Cc1ccc(Cl)cc1` (stereo not drawn) [HCl Salt, R=Cl, N-(2-vinyloxyethyl)-α-methyl-β-(4-cholorophenyl) ethylamine hydrochloride], in data set [2], the “Serum Free Fatty Acids” value was 780±66 μEq/liter; the “Serum Concentration, Cholesterol” value came out at 116±8 mg%; the “Serum Concentration, Glucose” value came to 159±1 mg%; the “Serum Concentration, Glycerol” value is recorded as 1.8±.30 mg%. For the same compound, in data set [2], the “Serum Concentration, Triglycerides” value is 62±7 mg%; the “inhibiting the increase in serum triglycerides induced by olive oil gavage” value is reported as 50-55%; the “reduction of olive oil induced increase in serum cholesterol” value was 14-19%. For the same compound, in [2] (in words), the “inhibiting the increase in serum triglycerides, compared with fenfluramine” value is “comparable to fenfluramine”. Further, in data set [3], the stimulating properties entry is “minimum stimulating properties”. For the same compound, in [4] (5 mg/kg P.O., rats), the “% Change From Control Value in Average Daily Consumption of Food” value (shortened to “% Change From Control Value”) is -24.5%. Moreover, the “% Change From Control Value” value in data set [4] (10 mg/kg P.O., rats) was -53.5%. Moreover, the “% Change From Control Value” value in data set [4] (20 mg/kg P.O., rats) is -87.3%. Besides, in [4], the “potency compared with fenfluramine” value is “considerably more potent” and the “Relative Potency” value is 2.5. Also, the ED50 – broadly, the dose that gives a 50% effect, or the effect in half of the subjects – in data set [4] (P.O., rats) is 7.7 mg/kg. For the same compound, the “potency relative to fenfluramine (times)” value in data set [4] (rats, P.O.) was “approximately 2.5 times”. The LD50 (commonly the dose expected to kill half of the subjects tested) in data set [5] is 950 mg/kg. Also, in data set [6] (0.25 gm/kg P.O.), the “Mortality Ratio” value was 0/6. Besides, the “Mortality Ratio” value in data set [6] (0.5 gm/kg P.O.) is reported as 1/6. For the same compound, the “Mortality Ratio” value in [6] (1.0 gm/kg P.O.) is 3/6. In addition, the “Mortality Ratio” value in data set [6] (1.25 gm/kg P.O.) is 4/6. In addition, in [6] (1.50 gm/kg P.O.), the “Mortality Ratio” value was 5/6. For the same compound, the “Mortality Ratio” value in data set [6] (2.00 gm/kg P.O.) is on record as 6/6. Also, in data set [6], the “toxicity compared with fenfluramine” value is on record as “considerably less toxic than fenfluramine” and the “toxicity relative to fenfluramine” value is on record as “approximately four times less toxic than fenfluramine”. Also, in [7] (setting [11]), the “Shock Rate (percentage deviation from baseline rate)” value is -55%. In addition, in [7], the “effect on performance / behavior” value is recorded as “did not significantly affect behavior except for the parameter of shock rate which was reduced”, the “effect on performance in Sidman Avoidance test” value is listed as “did not affect performance significantly overall”, the “effect on response rate” value is “response rate remaining stable” and the “effect on shock rate” value is “sharp decrease in shock rate”. In addition, the solubility in water entry in data set [8] is given as “soluble in water”. For the same compound, in data set [1] (high doses (300-1000 mg/kg)), the stimulatory effect result is on record as “only a weak stimulatory effect”.

For `CCNC(C)Cc1cccc(C(F)(F)F)c1` (centres unmarked) [Fenfluramine, reference compound], in [2], the “Serum Free Fatty Acids” value is 919±61 μEq/liter; the “Serum Concentration, Cholesterol” value stood at 140±3 mg%; the “Serum Concentration, Glucose” value was 160±9 mg%; the “Serum Concentration, Glycerol” value is on record as 1.6±.10 mg%. Further, the “Serum Concentration, Triglycerides” value in [2] amounted to 61±1 mg%. The “effect on olive oil induced increase in serum cholesterol” value in [2] (in words) is “unaffected”. Moreover, the “% Change From Control Value” value in [4] (5 mg/kg P.O., rats) is given as -18.7%. In data set [4] (10 mg/kg P.O., rats), the “% Change From Control Value” value is reported as -39.3%. Further, the “% Change From Control Value” value in data set [4] (20 mg/kg P.O., rats) was -50.5%. Moreover, in [4] (P.O., rats), the “Calculated ED50 (dose necessary to reduce the intake of food by 50%)” value is 20.7 mg/kg and the ED50 is 20 mg/kg. Further, the LD50 in data set [5] is 225 mg/kg. For the same compound, the “Mortality Ratio” value in data set [6] (0.1 gm/kg P.O.) is given as 0/6. In data set [6] (0.2 gm/kg P.O.), the “Mortality Ratio” value is reported as 2/6. For the same compound, the “Mortality Ratio” value in data set [6] (0.25 gm/kg P.O.) is listed as 4/6. The “Mortality Ratio” value in data set [6] (0.3 gm/kg P.O.) is 5/6. Further, in data set [7] (setting [11]), the “Response Rate (percentage deviation from baseline rate)” value was “+15%” and the “Shock Rate (percentage deviation from baseline rate)” value is on record as -50%. Further, in [7], the “effect on performance / behavior” value is recorded as “amphetamine-like effect on performance”, the “effect on performance in Sidman Avoidance test” value is “all doses to be effective in producing significant results; also recorded: results indicative of amphetamine-like compounds”, the “effect on response rate” value is on record as “increase in response rate” and the “effect on shock rate” value was “decrease in shock rate”. Further, the “sedative or stimulant action” value in data set [9] (Nursing 74) is “acts as a sedative rather than a stimulant”. Moreover, in data set [9] (Turtle et al.), the “glucose tolerance in diabetics” value is given as “appears to improve glucose tolerance in diabetics”. The undesirable side effects entry in data set [9] (diabetics, Turtle et al.) is on record as “without producing undersirable side effects”. The “post absorption glucose levels” value in data set [9] (given before meals, maturity onset and insulin-requiring diabetics, Turtle et al.) is “consistently reduced post absorption glucose levels”. Besides, the stimulant effects result in data set [1] was “stimulant effects”. For the same compound, the “intestinal absorption of triglycerides” value in [10] (Bizzi et al.) is listed as “inhibition of the intestinal absorption of triglycerides”. Also, the plasma triglycerides result in data set [10] (fed, but not fasted, animals, Garattini et al.) is on record as “decrease in plasma triglycerides in fed, but not fasted, animals”. Also, in data set [10] (rats, Bizzi et al.), the “concentration of plasma free fatty acids” value was “rapid increase”. In addition, in data set [10] (several hours after olive oil gavage, prior treatment of rats), the “rise in plasma triglycerides after olive oil gavage” value is given as “inhibited”.

As for `C=COCCNC(C)Cc1cccc(C(F)(F)F)c1` (stereo not drawn) [HCl Salt, R=CF3, N-(2-vinyloxyethyl)-α-methyl-β-(3-trifluoromethylphenyl) Phenethylamine Hydrochloride], in [2], the “Serum Free Fatty Acids” value is reported as 870±61 μEq/liter; the “Serum Concentration, Cholesterol” value came to 122±10 mg%; the “Serum Concentration, Glucose” value is 159±7 mg%; the “Serum Concentration, Glycerol” value was 2.1±.40 mg%. In data set [2], the “Serum Concentration, Triglycerides” value came to 62±13 mg%; the “inhibiting the increase in serum triglycerides induced by olive oil gavage” value is recorded as 50-55%; the “reduction of olive oil induced increase in serum cholesterol” value is reported as 14-19%. Besides, in data set [2] (in words), the “inhibiting the increase in serum triglycerides, compared with fenfluramine” value is “comparable to fenfluramine”. Further, the stimulating properties entry in data set [3] is listed as “minimum stimulating properties”. Besides, the “% Change From Control Value” value in data set [4] (5 mg/kg P.O., rats) was -22.9%. The “% Change From Control Value” value in data set [4] (10 mg/kg P.O., rats) was -28.3%. Further, the “% Change From Control Value” value in data set [4] (20 mg/kg P.O., rats) is given as -76.0%. Besides, in data set [4], the “potency compared with fenfluramine” value is reported as “considerably more potent” and the “Relative Potency” value worked out at 1.2. Also, in data set [4] (P.O., rats), the 50% effective dose (ED50) is 17.4 mg/kg. In [4] (rats, P.O.), the “potency relative to fenfluramine (times)” value was ~1.2 times. Also, in data set [5], the LD50 was 1010 mg/kg. Also, the “Mortality Ratio” value in data set [6] (0.5 gm/kg P.O.) is 0/6. Further, the “Mortality Ratio” value in data set [6] (0.75 gm/kg P.O.) was 1/6. For the same compound, the “Mortality Ratio” value in data set [6] (0.85 gm/kg P.O.) is listed as 2/6. For the same compound, the “Mortality Ratio” value in data set [6] (1.0 gm/kg P.O.) was 4/6. Further, in data set [6] (2.00 gm/kg P.O.), the “Mortality Ratio” value is reported as 5/6. Moreover, in data set [6], the “toxicity compared with fenfluramine” value was “considerably less toxic than fenfluramine” and the “toxicity relative to fenfluramine” value is reported as “approximately four times less toxic than fenfluramine”. For the same compound, the solubility in water entry in data set [8] is recorded as “soluble in water”.
